Measurements as given in patent US20240150293A1, “SPIROCYCLOHEXANE DERIVATIVES, PHARMACEUTICAL COMPOSITIONS CONTAINING THEM AND THEIR USES AS ANTI-APOPTOTIC INHIBITORS” (LES LABORATOIRES SERVIER, priority 2021, published 2024).

Molecular target: Mcl-1 protein (UniProtKB Q07820) (Homo sapiens (Human), UniProt Q07820)
Test: Inhibition of Mcl-1 by the fluorescence polarisation assay (Example A, Method A)
Type: binding
Settings: fluorescence polarization assay
Procedure: The relative binding potency of each compound was determined via Fluorescence Polarisation (FP). The method utilised a Fluorescein labelled ligand (Fluorescein-βAla-Ahx-A-REIGAQLRRMADDLNAQY-OH; MW 2,765) which binds to the Mcl-1 protein (such that Mcl-1 corresponds to the UniProtKB® primary accession number: Q07820) leading to an increased anisotropy measured in milli-polarisation (mP) units using a reader. The addition of a compound which binds competitively to the same site as the ligand will result in a greater proportion of unbound ligand in the system indicated by a decrease in mP units.
An 11 point serial dilution of each compound was prepared in DMSO and 2 μl transferred into flat bottomed, low binding, 384-well plate (final DMSO concentration 5%). 38 μl of buffer containing the Fluorescein labelled ligand (final concentration 1 nM) and Mcl-1 protein (final concentration 5 nM) was then added. Buffer components were 10 mM 4-(2-hydroxyethyl)-1-piperazineethanesulfonic acid [HEPES], 150 mM NaCl, pH 7.4 with the addition of 0.05% Tween 20.
Assay plates were incubated for 2 hours at room temperature before FP was measured on a […] Synergy Neo reader ([…], Cut off 510 nm) and mP units calculated. The binding of increasing doses of test compound was expressed as a percentage reduction in mP compared to a window established between ‘5% DMSO only’ and ‘100% inhibition’ controls. 11-point dose response curves were plotted with XL-Fit software using a 4-Parameter Logistic Model (Sigmoidal Dose-Response Model) and the inhibitory concentrations that gave a 50% reduction in mP (IC50) were determined. The Ki values were determined from the IC50 values according to Cer et al, Nucleic Acids Res, 2009, 37 (WebServer issue): W441-W445. Inhibition constants (Ki) are determined from complete binding inhibition curves (cKi) or from estimated from incomplete binding inhibition curves (eKi) in most cases due to low activity.

Sequence of Mcl-1 protein (Q07820 whole entry): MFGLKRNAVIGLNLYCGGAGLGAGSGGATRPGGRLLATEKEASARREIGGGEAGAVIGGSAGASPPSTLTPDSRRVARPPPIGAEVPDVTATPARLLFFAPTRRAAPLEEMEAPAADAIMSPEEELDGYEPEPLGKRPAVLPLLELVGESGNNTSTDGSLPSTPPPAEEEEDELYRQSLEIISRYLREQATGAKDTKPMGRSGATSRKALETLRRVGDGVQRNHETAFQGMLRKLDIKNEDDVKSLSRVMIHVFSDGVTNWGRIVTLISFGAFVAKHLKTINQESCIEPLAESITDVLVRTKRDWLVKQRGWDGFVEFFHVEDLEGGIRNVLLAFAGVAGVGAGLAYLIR

Row | Compound | Ki [µM]
1 | O=C(O)[C@]1(Nc2cccc(Cl)c2)CC[C@]2(CC1)C(C1CN(Cc3ccncc3)C1)=Cc1ccccc12 [Example 98, (1r,4r)-4-(3-chloroanilino)-2′-{1-[(pyridin-4-yl)methyl]azetidin-3-yl}spiro[cyclohexane-1,1′-indene]-4-carboxylic acid] | 10.4
2 | COc1ccc2c(c1)[C@]1(CC[C@@](Nc3cccc(Cl)c3)(C(=O)O)CC1)C1(CCCC1)C2 [Example 89, (1r,4r)-4-(3-chloroanilino)-6′-methoxy-3′H-dispiro[cyclohexane-1,1′-indene-2′,1″-cyclopentane]-4-carboxylic acid] | 2.12
3 | O=C(O)[C@]1(Nc2cccc(Cl)c2)CC[C@]2(CC1)C(c1cc3c(-c4ccncc4)cccc3o1)=Cc1ccccc12 [Example 361, (1s,4s)-4-(3-chloroanilino)-2′-[4-(pyridin-4-yl)-1-benzofuran-2-yl]spiro[cyclohexane-1,1′-indene]-4-carboxylic acid] | 14.8
4 | O=C(O)[C@]1(Nc2cccc(Cl)c2)CC[C@]2(CC1)C(Br)=Cc1ccc(Cl)cc12 [Example 134, (1s,4s)-2′-bromo-6′-chloro-4-(3-chloroanilino)spiro[cyclohexane-1,1′-indene]-4-carboxylic acid] | 0.265
5 | COc1ccc(CCCC2Cc3ccccc3[C@]23CC[C@@](Nc2cccc(Cl)c2)(C(=O)O)CC3)cc1 (stereo partly drawn) [Example 161, (1r,4r)-4-(3-chloroanilino)-2′-[3-(4-methoxyphenyl)propyl]-2′,3′-dihydrospiro[cyclohexane-1,1′-indene]-4-carboxylic acid] | 0.447
6 | O=C(O)[C@]1(Nc2cccc(Cl)c2)CC[C@]2(CC1)C(c1cccc3ccoc13)=Cc1ccccc12 [Example 266, (1s,4s)-2′-(1-benzofuran-7-yl)-4-(3-chloroanilino)spiro[cyclohexane-1,1′-indene]-4-carboxylic acid] | 0.593
7 | COc1cc(Cl)cc(C2Cc3ccccc3[C@]23CC[C@@](Nc2cccc(Cl)c2)(C(=O)O)CC3)c1 (single isomer, unassigned) [Example 348, (1r,4r)-4-(3-chloroanilino)-2′-(3-chloro-5-methoxyphenyl)-2′,3′-dihydrospiro[cyclohexane-1,1′-indene]-4-carboxylic acid] | 10.6
8 | CC1(C)CCC=C1C1=Cc2ccccc2[C@]12CC[C@@](Nc1cccc(Cl)c1)(C(=O)O)CC2 [Example 278, (1s,4s)-4-(3-chloroanilino)-2′-(5,5-dimethylcyclopent-1-en-1-yl)spiro[cyclohexane-1,1′-indene]-4-carboxylic acid] | 11.8
9 | O=C(O)[C@]1(Nc2cccc(Cl)c2)CC[C@]2(CC1)C(COCCc1ccccc1F)=Cc1ccccc12 [Example 410, (1s,4s)-4-(3-chloroanilino)-2′-{[2-(2-fluorophenyl)ethoxy]methyl}spiro[cyclohexane-1,1′-indene]-4-carboxylic acid] | 0.55
10 | O=C(O)[C@]1(Nc2cccc(Cl)c2)CC[C@]2(CC1)C(c1cc3cc(-c4ccncc4)ccc3o1)=Cc1ccccc12 [Example 375, (1s,4s)-4-(3-chloroanilino)-2′-[5-(pyridin-4-yl)-1-benzofuran-2-yl]spiro[cyclohexane-1,1′-indene]-4-carboxylic acid] | 4.79
11 | CN(CCc1ccncc1)C(=O)C1=Cc2ccccc2[C@]12CC[C@@](Nc1cccc(Cl)c1)(C(=O)O)CC2 [Example 403, (1s,4s)-4-(3-chloroanilino)-2′-{methyl[2-(pyridin-4-yl)ethyl]carbamoyl}spiro[cyclohexane-1,1′-indene]-4-carboxylic acid] | 8.21
12 | O=C(O)[C@]1(Nc2cccc(Cl)c2)CC[C@@]2(CC1)c1ccccc1CC2OCCCc1ccccc1 (stereo partly drawn) [Example 400, (1s,4s)-4-(3-chloroanilino)-2′-(3-phenylpropoxy)-2′,3′-dihydrospiro[cyclohexane-1,1′-indene]-4-carboxylic acid] | 0.917
13 | O=C(O)[C@]1(Nc2cccc(Br)c2)CC[C@@]2(CCc3ccc(O)cc32)CC1 [Example 63, (1r,4s)-4-(3-bromoanilino)-6′-hydroxy-2′,3′-dihydrospiro[cyclohexane-1,1′-indene]-4-carboxylic acid] | 0.24
14 | O=C(O)[C@]1(Nc2cccc(Br)c2)CC[C@]2(CC1)C(CCCOc1ccnc3ccsc13)=Cc1ccccc12 [Example 454, (1r,4r)-4-(3-bromoanilino)-2′-{3-[(thieno[3,2-b]pyridin-7-yl)oxy]propyl}spiro[cyclohexane-1,1′-indene]-4-carboxylic acid] | 0.141
15 | O=C(O)[C@]1(Nc2cccc(Cl)c2)CC[C@]2(CC1)C(CC(COc1ccnc3ccsc13)COc1ccnc3ccsc13)=Cc1ccccc12 [Example 492, (1r,4r)-4-(3-chloroanilino)-2′-(3-[(thieno[3,2-b]pyridin-7-yl)oxy]-2-{[(thieno[3,2-b]pyridin-7-yl)oxy]methyl}propyl)spiro[cyclohexane-1,1′-indene]-4-carboxylic acid] | 0.0937
16 | O=C(O)C1(Nc2cccc(Br)c2)CCC2(CC1)c1ccccc1CC2c1ccc(OCc2ccccc2)cc1 (stereo not drawn) [Example 244, 2′-[4-(benzyloxy)phenyl]-4-(3-bromoanilino)-2′,3′-dihydrospiro[cyclohexane-1,1′-indene]-4-carboxylic acid] | 0.779
17 | O=C(O)[C@]1(Nc2cccc(Cl)c2)CC[C@@]2(CC1)c1ccccc1C[C@@H]2c1ccc(Oc2ccccc2)cc1 [Example 359, (1r,2′R,4R)-4-(3-chloroanilino)-2′-(4-phenoxyphenyl)-2′,3′-dihydrospiro[cyclohexane-1,1′-indene]-4-carboxylic acid] | 2.14
18 | COc1ccc([C@@H]2Cc3ccccc3[C@]23CC[C@@](Nc2cccc(Cl)c2)(C(=O)O)CC3)cc1 [Example 240, (1r,2′S,4S)-4-(3-chloroanilino)-2′-(4-methoxyphenyl)-2′,3′-dihydrospiro[cyclohexane-1,1′-indene]-4-carboxylic acid] | 0.217
19 | CN1c2ccc(CCc3ccccc3)cc2[C@]2(CC[C@](Nc3cccc(Br)c3)(C(=O)O)CC2)C1=O [Example 11, (1r,4r)-4-(3-bromoanilino)-1′-methyl-2′-oxo-5′-(2-phenylethyl)-1′,2′-dihydrospiro[cyclohexane-1,3′-indole]-4-carboxylic acid] | 6.43
20 | O=C(O)[C@]1(Nc2cccc(Cl)c2)CC[C@@]2(CC1)c1ccccc1CC2Cc1ccccc1 (stereo partly drawn) [Example 169, (1r,4r)-2′-benzyl-4-(3-chloroanilino)-2′,3′-dihydrospiro[cyclohexane-1,1′-indene]-4-carboxylic acid] | 4.77
21 | O=C(O)[C@]1(Nc2cccc(Cl)c2)CC[C@@]2(CC1)c1ccccc1C[C@@H]2c1ccc2occc2c1 [Example 282, (1r,2′R,4R)-2′-(1-benzofuran-5-yl)-4-(3-chloroanilino)-2′,3′-dihydrospiro[cyclohexane-1,1′-indene]-4-carboxylic acid] | 5.13
22 | O=C(O)[C@]1(Nc2cccc(Cl)c2)CC[C@]2(CC1)C(C1=CCN(Cc3ccccc3)CC1)=Cc1ccccc12 [Example 360, (1r,4r)-2′-(1-benzyl-1,2,3,6-tetrahydropyridin-4-yl)-4-(3-chloroanilino)spiro[cyclohexane-1,1′-indene]-4-carboxylic acid] | 17.5
23 | COc1ccc(C2Cc3ccccc3[C@]23CC[C@@](Nc2ccccc2)(C(=O)O)CC3)c(C)c1 (single isomer, unassigned) [Example 256, (1r,4r)-4-anilino-2′-(4-methoxy-2-methylphenyl)-2′,3′-dihydrospiro[cyclohexane-1,1′-indene]-4-carboxylic acid] | 24.2
24 | O=C(O)[C@]1(Nc2cccc(Cl)c2)CC[C@@]2(CC1)c1ccccc1CC2CCOc1ccccc1 (stereo partly drawn) [Example 177, (1r,4r)-4-(3-chloroanilino)-2′-(2-phenoxyethyl)-2′,3′-dihydrospiro[cyclohexane-1,1′-indene]-4-carboxylic acid] | 0.226
25 | O=C(O)[C@]1(Nc2cccc(Cl)c2)CC[C@@]2(CC1)c1ccccc1CC2c1ccc2c(c1)OCC2 (single isomer, unassigned) [Example 287, (1r,4r)-4-(3-chloroanilino)-2′-(2,3-dihydro-1-benzofuran-6-yl)-2′,3′-dihydrospiro[cyclohexane-1,1′-indene]-4-carboxylic acid] | 0.925
26 | Cc1cc(C2=Cc3ccccc3C23CCC(Nc2cccc(Br)c2)(C(=O)O)CC3)ccc1Cl (single isomer, unassigned) [Example 235, 4-(3-bromoanilino)-2′-(4-chloro-3-methylphenyl)spiro[cyclohexane-1,1′-indene]-4-carboxylic acid] | 136
27 | O=C(O)C1(Nc2cccc(Br)c2)CCC2(CC1)C(=O)N1CCCc3cc(Br)cc2c31 (single isomer, unassigned) [Example 14, 8′-bromo-4-(3-bromoanilino)-2′-oxo-5′,6′-dihydro-2′H,4′H-spiro[cyclohexane-1,1′-pyrrolo[3,2,1-ij]quinoline]-4-carboxylic acid] | 5.2
